From ChEMBL document CHEMBL1201862, “PubChem BioAssay data set” (2004)
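In this assay, cells in 96-well plates receive the compound at five concentrations for 48 hours. Endpoints are linearly interpolated between the surrounding concentrations. GI50 = concentration required for 50% inhibition of growth.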 Calls of active or inactive are those of the source. No stated cut-off is given here; in the data, active = GI50 up to about 1.1 µM and inactive = higher.

Columns and labels:
Experiment in all cases: inhibition of tumour cell growth, NCI panel, 48 h
NCI/ADR-RES = system: NCI/ADR-RES
OVCAR-3 = system: OVCAR-3
DMS-114 = system: DMS-114
SW-620 = system: SW-620
RPMI-8226 = system: RPMI-8226
A549 = system: A549
OVCAR-4 = system: OVCAR-4
SK-MEL-28 = system: SK-MEL-28
DMS-273 = system: DMS-273
MOLT-4 = system: MOLT-4
MCF7 = system: MCF7
U-251 = system: U-251
IGROV-1 = system: IGROV-1
SK-MEL-5 = system: SK-MEL-5
RXF 393 = system: RXF 393
HOP-18 = system: HOP-18
HCC 2998 = system: HCC 2998
A498 = system: A498
EKVX = system: EKVX
M14 = system: M14

Compound	GI50 (NCI/ADR-RES)	GI50 (OVCAR-3)	GI50 (DMS-114)	GI50 (SW-620)	GI50 (RPMI-8226)	GI50 (A549)	GI50 (OVCAR-4)	GI50 (SK-MEL-28)	GI50 (DMS-273)	GI50 (MOLT-4)	GI50 (MCF7)	GI50 (U-251)	GI50 (IGROV-1)	GI50 (SK-MEL-5)	GI50 (RXF 393)	GI50 (HOP-18)	GI50 (HCC 2998)	GI50 (A498)	GI50 (EKVX)	GI50 (M14)
Cc1ccc(C(C)(C)C[P+](C)(c2ccccc2)c2ccccc2)cc1	> 100 µM (inactive)	3.24 µM (inactive)	5.25 µM (inactive)	17.4 µM (inactive)	1.41 µM (inactive)	11.6 µM (inactive)	9.18 µM (inactive)	8.51 µM (inactive)	4.89 µM (inactive)	11 µM (inactive)	7.93 µM (inactive)	11.6 µM (inactive)	5.28 µM (inactive)	3.42 µM (inactive)	27.5 µM (inactive)	6.43 µM (inactive)	9.73 µM (inactive)	34.4 µM (inactive)	38.5 µM (inactive)	
CN(C)CCCNc1ccc2ncn3c4ccc(O)cc4c(=O)c1c23	12.4 µM (inactive)	3.58 µM (inactive)	0.334 µM (active)	0.647 µM (active)	1.58 µM (inactive)	0.0721 µM (active)	1.55 µM (inactive)	4.71 µM (inactive)	0.246 µM (active)	0.0406 µM (active)	0.0964 µM (active)	0.203 µM (active)	0.577 µM (active)	0.64 µM (active)	0.439 µM (active)	3.86 µM (inactive)	4.43 µM (inactive)	0.697 µM (active)	4.71 µM (inactive)	1.65 µM (inactive)
